Reference: patent US9763939B2, “Compositions and methods for treating mitochondrial diseases” (BIOVISTA, INC., priority 2012, dated 2017)
Like-named read-outs stand apart in the source and are kept apart here.

Legend:
[1] = test system: C57BL/6 mice with MOG-induced EAE; assay: MOG-induced Experimental Allergic Encephalomyelitis (MOG-EAE) mouse model, spinal cord histology; format: in vivo; conditions: spinal cord H&E histology day 35, pirlindole 30 mg/kg, dexamethasone positive control, dose not given; for Severity Score (infiltration by inflammatory cells): vehicle 2.85±0.66; for White Matter Damage (WMD) percentage (axonal degeneration): vehicle 74.2±26.1
Experimental: EXAMPLE. Evaluation of anti-inflammatory and direct protection mode of action. Compounds described herein are evaluated in a standard MOG-induced Experimental Allergic Encephalomyelitis (MOG-EAE) mouse model of neurodegeneration to determine whether the compounds protect neurons directly, or via an indirect anti-inflammatory mode of action. EAE is induced in C57BL/6 mice by the single subcutaneous injection of MOG emulsified in Complete Freund's Adjuvant (CFA) on study days 0 and 6, followed by intraperitoneal supplemental immunostimulation with Pertussis Toxin (PT) carried out once at the time of EAE induction and once again 48 hours later. Test animals are observed for 35 days. Histology samples are harvested from the spinal cords of the animals on day 35 and are stained with Hematoxylin & Eosin (H&E). Analysis of the samples comprises two parameters: a) The Severity Score which refers mainly to infiltration by inflammatory cells and b) White Matter Damage (WMD), which refers mainly to axonal degeneration.

[2] = test system: YG8R FRDA mouse fibroblasts; assay: FAC/BSO oxidative stress insult, cell viability (Presto Blue), YG8R fibroblasts; format: cell-based; conditions: FAC and 1 mM BSO 48 h
Experimental: (§1) EXAMPLE. Primary fibroblast and neuronal stem cell (NSC) cultures from the YG8R FRDA mouse model. The cell cultures are used as a rapid means to test the effectiveness of potential therapies before proceeding to longer-term FRDA mouse model investigations. A parallel assay using YG22R NSCs may be used.
(§2) YG8R fibroblasts and NSCs are treated with increasing concentrations of test compound, and a vehicle-only negative control. Optionally, YG8R fibroblasts and NSCs are treated with a positive control compound, such as 1 μM idebenone. Two hours after the initial treatment, cells are lesioned with […] FAC and 1 mM BSO for 48 hours. Cell viability is then determined using Presto Blue Cell Viability Reagent (Life Technologies) for 24 hours and subsequent colorimetric spectrophotometry. […] Similarly, 1.8 μM tetrindole restored the vehicle-treated FAC/BSO cell viability value of 26% to a value of 53% (p<0.001), relative to the vehicle treated non-insulted cell value as 100%.

dopaminergic system = assay: Effect on the dopaminergic system
[3] = test system: human primary fibroblasts from patients suffering from Friedreich's ataxia; assay: cells; conditions: for statistically significant improvement in apoptosis compared to the BSO group: all tested doses
Experimental: (§3) EXAMPLE. […] Briefly, primary human fibroblasts from patients suffering from Friedreich's ataxia and LHON are lesioned with 100 μM BSO (LHON fibroblasts) or 250 μM BSO (FRDA fibroblasts) respectively, for 48 hours. Apoptosis, toxicity and viability rate of cells are determined using the ApoTox-Glo-Kit (Promega): the reagent for assessing viability and toxicity is applied 1:5 into treatment medium and incubated for 30 min at 37° C. Next, fluorescence is measured at the following wavelength sets: 400EX/505EM (viability) and 485EX/520EM (toxicity). In case of apoptosis measurement the caspase reagent was added 1:2 and incubated at RT for 30 min, the caspase activity (apoptosis) was measured as luminescence
(§4) EXAMPLE. Evaluation of Tetracyclic Pyrazinoindoles, and Pharmaceutically Acceptable Salts Thereof. One or more tetracyclic pyrazinoindoles are applied 2 and 24 hours before BSO treatment and are present throughout the assay. An optional reference compound, such as idebenone may be included for comparison. BSO treated cells without any treatment (BSO group) as well as cells neither treated with BSO nor with any treatment (Vehicle Control (VC) group) serve as controls. Cells are assessed for apoptosis, toxicity and viability immediately after BSO lesion by means of the ApoTox-Glo-assay Kit (Promega). Three independent experiments in four technical replicates are performed for all groups as depicted in Table 1 (different tetracyclic pyrazinoindoles are labeled as Test Items (T.I.1-T.I.2) and an optional positive control Reference Item 1 (R.I.1)):
(§5) BSO generally reduces a cell's protection against oxidative damage. Cells harvested from FRDA and LHON patients generate higher levels of ROS than normal cells. Apoptosis, toxicity and viability rate of cells are determined using the ApoTox-Glo-Kit (Promega): the reagent for assessing viability and toxicity is applied 1:5 into treatment medium and incubated for 30 min at 37° C. Next, fluorescence is measured at the following wavelength sets: 400EX/505EM (viability) and 485EX/520EM (toxicity). In case of apoptosis measurement the caspase reagent is added 1:2 and incubated at RT for 30 min, the caspase activity (apoptosis) was measured as luminescence
(§6) Descriptive statistical analysis was performed. Data are presented as mean±standard error of mean (SEM) in percent of vehicle control, MPP+ lesion and BSO lesion, respectively. Differences between compound-treated groups and controls (vehicle, BSO) are evaluated by means of One-Way ANOVA.
(§7) EXAMPLE. […] One vial is thawed and administered 2 and 24 hours before BSO treatment, at concentrations 0.6 μM, 1.8 μM, 5.5 μM and 16 μM. Apoptosis, toxicity and viability rate of cells are determined using the ApoTox-Glo-Kit (Promega). Human primary fibroblasts from patients suffering from Friedreich's ataxia are used. Three independent experiments in four technical replicates are performed for all groups. […] Statistical significance is indicated by NS=not significant p>0.1, *=p<0.05, **=p<0.01, ***=p<0.001 as determined by One-Way ANOVA. Data are shown as group mean+/−SEM.
(§8) EXAMPLE. Tetrindole is diluted in DMSO. One vial is thawed and administered 2 and 24 hours before BSO treatment, at concentrations 0.2 μM, 0.6 μM, 1.8 μM and 5.5 μM. Apoptosis, toxicity and viability rate of cells are determined using the ApoTox-Glo-Kit (Promega). Human primary fibroblasts from patients suffering from Friedreich's ataxia are used. Three independent experiments in four technical replicates are performed for all groups. […] Statistical significance is indicated by NS=not significant p>0.1, *=p<0.05, **=p<0.01, ***=p<0.001 as determined by One-Way ANOVA. Data are shown as group mean+/−SEM.

[4] = test system: reuptake of 5-hydroxytryptamine; assay: Effect on reuptake of 5-hydroxytryptamine
[5] = test system: YG8R FRDA mouse neuronal stem cells (NSCs); assay: FAC/BSO oxidative stress insult, cell viability (Presto Blue), YG8R NSCs; format: cell-based
Experimental: as §1, §2
Similarly, 1.8 μM tetrindole restored the vehicle-treated FAC/BSO cell viability value of 19% to a value of 40% (p<0.001), relative to the vehicle treated non-insulted cell value as 100%.

in vivo [6] = conditions: mouse
Absolute bioavailability = conditions: in vivo; species not given
[7] = Pharmacokinetics in the dog; format: in vivo
in vivo [8] = conditions: rat
cholinergic system = assay: Effect on the cholinergic system
[9] = test system: human primary fibroblasts from patients suffering from LHON; assay: cells
Experimental: as §3, §4, §5, §6
as §7, with “LHON” for “Friedreich's ataxia”
as §8, with “LHON” for “Friedreich's ataxia”

[10] = test system: reuptake of noradrenaline; assay: Effect on reuptake of noradrenaline
mice = conditions: mouse, in vivo, po
[11] = Pharmacokinetics and distribution in the rat; format: in vivo
[12] = too lipophillic; cannot reach the mitochondria (Edeas M. Pharm Res. 2011); cited from earlier work
[13] = Homo sapiens, Fibroblast, 48 h, read-out: protective effect in relative cell viability
[14] = rats, after oral and i.p. administration

C[C@@H]1C[C@H]2[C@@H]3CCC4=CC(=O)C=C[C@]4(C)[C@@]3(F)[C@@H](O)C[C@]2(C)[C@@]1(O)C(=O)CO [dexamethasone]
Severity Score (infiltration by inflammatory cells) [1]: 1.45±1.09 | White Matter Damage (WMD) percentage (axonal degeneration) [1]: 24.4±33.3 percentage

Cc1ccc2c(c1)c1c3n2CCNC3CCC1 (stereo not drawn) [pirlindole, 2,3,3a,4,5,6-hexahydro-8-methyl-1H-pyrazino[3,2,1-j,k]carbazole]
protection against the oxidative stress insult [2]: significantly protect | viability at 16 µM ([2]; Mus musculus, Fibroblast, 16 μM, vehicle-treated FAC/BSO value 26%, relative to vehicle treated non-insulted cells as 100%, p<0.001): 67% | effect on the dopaminergic system (dopaminergic system): no effect | Severity Score (infiltration by inflammatory cells) [1]: 2.7±1.29 | White Matter Damage (WMD) percentage (axonal degeneration) [1]: 41±44.1 percentage | statistically significant overall cytotoxicity over BSO control [3]: not observed at any dose | apoptosis (caspase activity) ([3]; 16 μM, only after the short incubation (2 h before lesion)): reduced apoptosis | viability at 16 µM [3, 13]: 161% | statistically significant improvement in apoptosis compared to the BSO group [3]: not observed at any dose | effect on the reuptake of 5-hydroxytryptamine [4]: inhibitory effect | protection against the oxidative stress insult [5]: significantly protect | viability at 5.5 µM ([5]; Mus musculus, 5.5 μM, vehicle-treated FAC/BSO value 19%, relative to vehicle treated non-insulted cells as 100%, p<0.001): 41% | LD50 (in vivo [6]; iv): 70 to 80 mg/kg | LD50 (in vivo [6]; po): 400 to 1000 mg/kg | bioavailability (Absolute bioavailability): 20 to 30% | first phase of elimination ([7]; dog, approximately): approximately 1.5 h | second phase of elimination ([7]; dog, approximately): ~11 h | third phase of elimination ([7]; dog, approximately): ~185 h | Tmax ([7]; in vivo, dog, oral, approximately): 1 to 2 h | blood levels versus dose ([7]; male and female dogs, repeated administration of three dose levels p.o. for one year): strictly dose-dependent | LD50 (in vivo [8]; iv): ~80 mg/kg | LD50 (in vivo [8]; po): 2000 to 5000 mg/kg | effect on the cholinergic system (cholinergic system): no effect | statistically significant overall cytotoxicity over BSO control [9]: not observed at any dose | apoptosis (caspase activity) ([9]; 16 μM, only significant after 24 h): reduced | apoptosis compared to the BSO group ([9]; 5.5 dose): Statistically significant inferior apoptosis | concentrations with protective effect or protective trend on cell viability ([9]; BSO lesion, pirlindole at both time points, tetrindole dose dependent protective trend): 16 µM | viability at 16 µM [9, 13]: 122% | effect on the reuptake of noradrenaline [10]: inhibitory effect | maximal non-lethal dose (mice): approximately 300 mg/kg | fraction eliminated ([11]; after 48 h): 80-85% | Tmax ([11]; in vivo, rat, oral, approximately): 2 to 6 h | second phase of elimination ([11]; rat): 35 to 70 h | first phase of elimination ([11]; rat, approximately): approximately 8 h | blood brain barrier (BBB) penetration [11, 14]: good blood brain barrier (BBB) penetration | tissue distribution [11, 14]: distributed in the lungs, liver, kidneys, spleen and various glands (but only transiently in bone marrow) | fraction eliminated ([11]; within 24 h): 40-60%

c1cc2c(cc1C1CCCCC1)c1c3n2CCNC3CCC1 (stereo not drawn) [tetrindole, 2,3,3a,4,5,6-Hexahydro-8-cyclohexyl-1H-pyrazino[3,2,1-j,k]carbazole]
protection against the oxidative stress insult [2]: significantly protect | viability at 1.8 µM ([2]; Mus musculus, Fibroblast, 1.8 μM, vehicle-treated FAC/BSO value 26%, relative to vehicle treated non-insulted cells as 100%, p<0.001): 53% | viability at 1.8 µM [3, 13]: 156% | statistically significant improvement in apoptosis compared to the BSO group [3]: not observed at any dose | statistically significant overall cytotoxicity over BSO control ([3]; human): not observed at any dose, except the highest dose of 5.5 | protection against the oxidative stress insult [5]: significantly protect | viability at 1.8 µM ([5]; Mus musculus, 1.8 μM, vehicle-treated FAC/BSO value 19%, relative to vehicle treated non-insulted cells as 100%, p<0.001): 40% | statistically significant overall cytotoxicity over BSO control [9]: not observed at any dose | viability at 1.8 µM [9, 13]: 122% | statistically significant improvement in apoptosis compared to the BSO group ([9]; all tested doses): not observed at any dose | statistically significant improvement in viability compared to the BSO group ([9]; all tested doses): not observed at any dose

vitamin E
permeation of cell membranes [12]: permeates cell membranes poorly
